The assay has as its system Plasmodium berghei. The experiment in a line: Luciferase/luciferin-expressing antifolate-resistant parasites were used to infect a culture of HepG2 cells that were pre-incubated with compounds. Infected hepatocytes emit light due to the luciferase reaction. Assay results are presented as the percent inhibition of light emission compared to control. […]. In kind it is functional. The settings on record: sporozoite; for IC90: read-out: LUCIFERASE INFECTION ASSAY - IC90.

Setting [1] is: read-out: LUCIFERASE INFECTION ASSAY - IC50.

For orientation: pIC50 means the IC50 on a negative log10 scale, so that one unit is a factor of ten. By IC90 is commonly meant the concentration needed for an effect of 90%.

pIC50: −log10 of the molar value.

As to `O=C1Nc2ccc(Cl)cc2/C1=C/c1ccc(-c2ccccc2)cc1`, the IC90 is more than 10 µM. Moreover, where the note is “FFLUC_HILL_SLOPE 2.74, FFLUC_R_SQUARED 0.354, PBLUC_HILL_SLOPE 5.72, PBLUC_R_SQUARED 0.824, read-out: LUCIFERASE INFECTION ASSAY - IC50”, the pIC50 was 5.07.
As for `CCCOc1c(Cl)cc(C(=O)N2CCN(C)c3nc4ccccc4nc32)cc1OCC`, the concentration for an effect of 90% (IC90) is more than 10 µM. Further, under setting [1], the pIC50 was less than 5.00.
`O=c1cc(NCCC2=CCCCC2)c2ccccc2o1`: the IC90 was found to be 3.21 µM. In addition, the negative-log IC50 (pIC50) (FFLUC_HILL_SLOPE 16, FFLUC_R_SQUARED 0.221, HEPG2TOX_HILL_SLOPE 2.34, HEPG2TOX_R_SQUARED 0.809, PBLUC_HILL_SLOPE 2.17, PBLUC_R_SQUARED 0.461, read-out: LUCIFERASE INFECTION ASSAY - IC50) was 5.93.
In the case of `CCN1C(=O)N(Cc2cccc(OC)c2)C(=O)C12CCN(C(C)CCc1c[nH]c3ccccc13)CC2` (stereo unspecified), the IC90 amounted to 5.56 µM. Moreover, where the note is “HEPG2TOX_HILL_SLOPE 4.28, HEPG2TOX_R_SQUARED 0.784, PBLUC_HILL_SLOPE 3.57, PBLUC_R_SQUARED 0.572, read-out: LUCIFERASE INFECTION ASSAY - IC50”, the pIC50 was 5.52.
Consider `FC(F)(F)c1ccc(/C=N/Nc2c(Cl)cc(C(F)(F)F)cc2Cl)cc1`, for which the 90% effect concentration (IC90) is more than 8.23 µM. Under setting [1], the pIC50 was less than 5.08.
In the case of `COc1ccc(OC)c(CCNc2nc3cnc(-c4cccc(Cl)c4)cc3n2C)c1`, the IC90 worked out at 1.4 µM. The pIC50 (HEPG2TOX_HILL_SLOPE 5.61, HEPG2TOX_R_SQUARED 0.886, PBLUC_HILL_SLOPE 7.64, PBLUC_R_SQUARED 0.579, read-out: LUCIFERASE INFECTION ASSAY - IC50) was 5.98.
For `Cc1cc(C(=O)CSc2nnc(C3CC3)[nH]2)c(C)n1CCC1=CCCCC1`, the concentration for an effect of 90% (IC90) is more than 10 µM. In addition, the negative logarithm of the IC50 (pIC50) under setting [1] is less than 5.00.
In the same order, the values of `O=C(NCCO)c1ccc(-c2cn3c(-c4ccc(Oc5ccccc5)cc4)cnc3cn2)cc1` are more than 7.33 µM and less than 5.13.
On to `Cc1ccc(C)c(-c2csc(NC(=O)CCNC(=O)c3ccsc3)n2)c1`, for which the concentration for an effect of 90% (IC90) was found to be 5.37 µM. Also, the negative logarithm of the IC50 (pIC50) (PBLUC_HILL_SLOPE 433, PBLUC_R_SQUARED 0.479, read-out: LUCIFERASE INFECTION ASSAY - IC50) was 5.27.
Take `Cc1ccc(C(CN2CCOCC2)Nc2nc(C(F)(F)F)nc3ccccc23)cc1` (stereo unspecified): the IC90 was 3.63 µM. For the same compound, the pIC50 (FFLUC_HILL_SLOPE 0.43, FFLUC_R_SQUARED 0.0433, PBLUC_HILL_SLOPE 12.3, PBLUC_R_SQUARED 0.751, read-out: LUCIFERASE INFECTION ASSAY - IC50) is 5.52.
In the case of `Cc1ccc(S(=O)(=O)c2ccc(C(F)(F)F)cc2[N+](=O)[O-])cc1`, the IC90 was more than 9.56 µM. The negative-log IC50 (pIC50) (FFLUC_HILL_SLOPE 11, FFLUC_R_SQUARED 0.463, read-out: LUCIFERASE INFECTION ASSAY - IC50) is less than 5.02.
For the compound `Cc1ccc(S(=O)(=O)N(C)CC(=O)N(C)Cc2ccccc2OC(F)(F)F)cc1C`, the 90% effect concentration (IC90) is more than 10 µM. Moreover, under setting [1], the pIC50 is less than 5.00.
The corresponding values for `COC(=O)c1cc(OC)c(OC)cc1NS(=O)(=O)c1ccc(Cl)cc1` are 2.91 µM and 5.55.
Turning to `C=CCNC(=S)N1CCc2c([nH]c3ccccc23)C1C(F)(F)F` (stereo unspecified), the IC90 is more than 9.72 µM. Also, the pIC50 under setting [1] was less than 5.01.
As to `CC(C)n1ncc2cc(C(=O)Nc3nc(-c4cccnc4)cs3)cnc21`, the 90% effect concentration (IC90) was more than 10 µM. Also, for the setting “HEPG2TOX_HILL_SLOPE 1.63, HEPG2TOX_R_SQUARED 0.918, read-out: LUCIFERASE INFECTION ASSAY - IC50”, the pIC50 was less than 5.00.
On to `Cc1nc(CSCC(=O)Nc2nc(-c3ccccn3)cs2)cs1`, for which the IC90 was more than 10 µM. Further, the pIC50 (PBLUC_HILL_SLOPE 39.1, PBLUC_R_SQUARED 0.364, read-out: LUCIFERASE INFECTION ASSAY - IC50) was 5.01.
Regarding `CSc1sc(C(=O)NNC(=O)Nc2ccccc2)c2c1C=CCC2`, the IC90 is more than 9.18 µM. Also, for the setting “FFLUC_HILL_SLOPE 1.34, FFLUC_R_SQUARED 0.714, read-out: LUCIFERASE INFECTION ASSAY - IC50”, the pIC50 was less than 5.04.
As to `Cn1c(-c2cccc(C(F)(F)F)c2)cc2c(Nc3cccnc3)nccc21`, the 90% effect concentration (IC90) is more than 10 µM. Besides, the negative-log IC50 (pIC50) (FFLUC_HILL_SLOPE 13.4, FFLUC_R_SQUARED 0.159, PBLUC_HILL_SLOPE 11.7, PBLUC_R_SQUARED 0.342, read-out: LUCIFERASE INFECTION ASSAY - IC50) is 5.04.
In the case of `C=CCN(c1ccc(F)cc1)S(=O)(=O)c1cc(C(=O)OCC(=O)C23CC4CC(CC(C4)C2)C3)ccc1Cl`, the 90% effect concentration (IC90) was more than 10 µM. Moreover, where the note is “FFLUC_HILL_SLOPE 7.93, FFLUC_R_SQUARED 0.0643, HEPG2TOX_HILL_SLOPE 7, HEPG2TOX_R_SQUARED 0.225, PBLUC_HILL_SLOPE 4.62, PBLUC_R_SQUARED 0.186, read-out: LUCIFERASE INFECTION ASSAY - IC50”, the pIC50 is 5.16.
On to `COc1ccc(Nc2cc3c(cn2)cc(-c2ccc(C(=O)N(C)C)cc2)n3Cc2ccccc2)cc1`, for which the concentration for an effect of 90% (IC90) was 9.34 µM. For the setting “HEPG2TOX_HILL_SLOPE 6.65, HEPG2TOX_R_SQUARED 0.257, PBLUC_HILL_SLOPE 26.3, PBLUC_R_SQUARED 0.641, read-out: LUCIFERASE INFECTION ASSAY - IC50”, the negative logarithm of the IC50 (pIC50) was 5.07.
Consider `COc1ccc(C)cc1C(C)NC(=O)c1cnn(Cc2ccccc2)c1` (stereo unspecified), for which the IC90 was more than 10 µM. Also, the pIC50 under setting [1] is less than 5.00.
Consider `CCCc1c(C(=O)OCC)cnn1-c1c(Cl)cc(Cl)cc1Cl`, for which the concentration for an effect of 90% (IC90) is more than 9.12 µM. Under “HEPG2TOX_HILL_SLOPE 1.55, HEPG2TOX_R_SQUARED 0.952, PBLUC_HILL_SLOPE 4.67, PBLUC_R_SQUARED 0.0395, read-out: LUCIFERASE INFECTION ASSAY - IC50”, the negative logarithm of the IC50 (pIC50) is 5.08.
In the case of `CCCCN(C)S(=O)(=O)c1ccc(NC(=O)c2ccc3nccnc3c2)cc1`, the IC90 is more than 10 µM. In addition, under setting [1], the negative logarithm of the IC50 (pIC50) is less than 5.00.
On to `COC(=O)c1c(C)[nH]c(-c2nc(Nc3cccc(OC)c3)sc2C)c1C`, for which the 90% effect concentration (IC90) is more than 10 µM. Where the note is “PBLUC_HILL_SLOPE 3.29, PBLUC_R_SQUARED 0.0567, read-out: LUCIFERASE INFECTION ASSAY - IC50”, the pIC50 was 5.12.
For the compound `CCC(=O)Nc1nc(C)c(-c2csc(Nc3ccc(N(C)C)cc3)n2)s1`, the IC90 is more than 8.52 µM. Further, the negative-log IC50 (pIC50) (FFLUC_HILL_SLOPE 5.2, FFLUC_R_SQUARED 0.393, read-out: LUCIFERASE INFECTION ASSAY - IC50) was less than 5.07.
With `C=CCOc1cccc(C(=O)N(C)Cc2nc(-c3ccc(Cl)cc3)no2)c1`, the concentration for an effect of 90% (IC90) was more than 8.6 µM. Further, the negative logarithm of the IC50 (pIC50) under setting [1] was less than 5.07.
In the same order, the values of `CCN(Cc1ccc2c(c1)OCCO2)C(=O)C1CCN(c2ncnc3sc(C)c(C)c23)CC1` are more than 10 µM and less than 5.00.
With `Cc1[nH]c2ccc(C(=O)Nc3ccc(N4CCOCC4)nc3)cc2c1C`, the IC90 was more than 10 µM. Further, the negative-log IC50 (pIC50) (FFLUC_HILL_SLOPE 22.7, FFLUC_R_SQUARED 0.475, read-out: LUCIFERASE INFECTION ASSAY - IC50) is less than 5.00.
Consider `CCn1c(SCC(=O)Nc2cc(Cl)ccc2O)nnc1-c1ccncc1`, for which the concentration for an effect of 90% (IC90) was more than 8.46 µM. Further, under setting [1], the negative logarithm of the IC50 (pIC50) was less than 5.07.
In the same order, the values of `O=C(Nc1cc([N+](=O)[O-])ccc1Cl)Nc1ccccc1-c1nc2ccccc2[nH]1` are more than 10 µM and less than 5.00.
With `N#C/C(=N\Nc1ccc(F)c(Cl)c1)C(=O)c1ccc(Cl)cc1`, the 90% effect concentration (IC90) came to 1.26 µM. The pIC50 under setting [1] was 5.97.
For `CC1CN(Cc2csc(Nc3ccccc3)n2)CC(C)O1` (stereo unspecified), the concentration for an effect of 90% (IC90) is 9.23 µM. Besides, under “PBLUC_HILL_SLOPE 20.5, 3.85, PBLUC_R_SQUARED 0.234, 0.496, read-out: LUCIFERASE INFECTION ASSAY - IC50”, the pIC50 was 5.13.
As to `Cc1onc(-c2ccccc2)c1-c1csc(Nc2cc(C(F)(F)F)cc(C(F)(F)F)c2)n1`, the IC90 is 3.88 µM. In addition, the pIC50 (FFLUC_HILL_SLOPE 38.4, FFLUC_R_SQUARED 0.44, HEPG2TOX_HILL_SLOPE 9.25, HEPG2TOX_R_SQUARED 0.968, PBLUC_HILL_SLOPE 81.8, PBLUC_R_SQUARED 0.627, read-out: LUCIFERASE INFECTION ASSAY - IC50) is 5.42.
Take `COc1ccc(C(N)c2csc(NC(=O)Nc3cccc(C#N)c3)n2)cc1` (stereo unspecified): the 90% effect concentration (IC90) was 3.43 µM. The negative logarithm of the IC50 (pIC50) (PBLUC_HILL_SLOPE 15.3, PBLUC_R_SQUARED 0.483, read-out: LUCIFERASE INFECTION ASSAY - IC50) was 5.53.
Regarding `CN(C)c1ccc(/C=c2\s/c(=C\C#N)n(CC(=O)c3ccccc3)c2=O)cc1`, the IC90 is more than 10 µM. The negative-log IC50 (pIC50) (FFLUC_HILL_SLOPE 120, FFLUC_R_SQUARED 0.489, HEPG2TOX_HILL_SLOPE 0.599, HEPG2TOX_R_SQUARED 0.179, PBLUC_HILL_SLOPE 1.11, PBLUC_R_SQUARED 0.152, read-out: LUCIFERASE INFECTION ASSAY - IC50) was 5.24.
Consider `CCCNC(=O)c1c(NC(=O)c2ccc(C)cc2)nc2ccc(C)cn12`, for which the 90% effect concentration (IC90) amounted to 4.76 µM. Also, the pIC50 (FFLUC_HILL_SLOPE 15.6, FFLUC_R_SQUARED 0.337, HEPG2TOX_HILL_SLOPE 1.6, HEPG2TOX_R_SQUARED 0.209, PBLUC_HILL_SLOPE 10.4, PBLUC_R_SQUARED 0.336, read-out: LUCIFERASE INFECTION ASSAY - IC50) was 5.41.
Regarding `COc1ccc(CNCCC(c2ccc(F)cc2)c2ccco2)cc1` (stereo unspecified), the IC90 was 1.22 µM. Besides, the pIC50 (HEPG2TOX_HILL_SLOPE 73.6, HEPG2TOX_R_SQUARED 0.521, PBLUC_HILL_SLOPE 15.7, PBLUC_R_SQUARED 0.627, read-out: LUCIFERASE INFECTION ASSAY - IC50) was 5.97.
For the compound `Nc1cc(C(F)(F)F)ccc1Sc1ccccn1`, the 90% effect concentration (IC90) is more than 12.2 µM. Further, the pIC50 (PBLUC_HILL_SLOPE 27.6, PBLUC_R_SQUARED 0.179, read-out: LUCIFERASE INFECTION ASSAY - IC50) was 4.93.

These data come from ChEMBL document CHEMBL4483862, “Open-source discovery of chemical leads for next-generation chemoprotective antimalarials” (2018).
